Results from patent publication EP4562004B1, “NOVEL 7-SUBSTITUTED INDOLE SULFONAMIDE DERIVATIVES” (F. Hoffmann-La Roche AG, priority 2022, dated 2024).

Molecular target: human GPR17 short isoform (Homo sapiens, UniProt Q13304)
Assay: GPR17 cAMP assay (antagonist mode, TR-FRET cAMP detection)
Assay type: cell-based
Conditions: CHO-K1 cells stably expressing human GPR17 short isoform; with EC80 concentration of agonist MDL29,951, IBMX 0.5mM, forskolin 15µM; normalized to reference antagonist; read-out: hGPR17 cAMP IC50
Method in brief: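 CHO-K1 cells stably expressing untagged human GPR17 short isoform, preincubated with compounds in HBSS/HEPES/0.1% BSA pH 7.4 plus EC80 MDL29,951 and 0.5 mM IBMX; forskolin (15 µM final) added after 5 min, then 30 min at room temperature. cAMP read by TR-FRET after 90 min lysis; normalized to reference antagonist maximum, sigmoidal fit.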

Chain of human GPR17 short isoform (Q13304 29-367): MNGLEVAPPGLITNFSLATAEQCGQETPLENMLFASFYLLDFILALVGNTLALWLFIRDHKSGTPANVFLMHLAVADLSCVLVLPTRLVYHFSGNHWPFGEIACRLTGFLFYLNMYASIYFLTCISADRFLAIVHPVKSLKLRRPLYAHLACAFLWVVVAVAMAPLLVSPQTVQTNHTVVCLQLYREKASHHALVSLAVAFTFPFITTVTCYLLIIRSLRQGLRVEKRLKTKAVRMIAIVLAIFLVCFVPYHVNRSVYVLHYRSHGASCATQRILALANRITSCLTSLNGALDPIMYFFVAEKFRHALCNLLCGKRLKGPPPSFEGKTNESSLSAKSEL

COc1nc(NS(=O)(=O)c2c[nH]c3c(-n4cccn4)c(C)ccc23)nc(OC)c1OCCF [Example 82, N-[5-(2-fluoroethoxy)-4,6-dimethoxy-pyrimidin-2-yl]-6-methyl-7-pyrazol-1-yl-1H-indole-3-sulfonamide]
IC50: 68 nM

COc1nc(NS(=O)(=O)c2c[nH]c3c(-n4cccn4)c(Br)ccc23)nc(OC)c1OCCF [Example 83, 6-bromo-N-[5-(2-fluoroethoxy)-4,6-dimethoxy-pyrimidin-2-yl]-7-pyrazol-1-yl-1H-indole-3-sulfonamide]
IC50: 36 nM

[2H]C([2H])(F)C([2H])([2H])Oc1c(OC)nc(NS(=O)(=O)c2c[nH]c3c(-n4cccn4)c(Br)ccc23)nc1OC [Example 84, 6-bromo-N-[4,6-dimethoxy-5-(1,1,2,2-tetradeuterio-2-fluoro-ethoxy)pyrimidin-2-yl]-7-pyrazol-1-yl-1H-indole-3-sulfonamide]
IC50: 26 nM

[2H]C([2H])(F)C([2H])([2H])Oc1c(OC)nc(NS(=O)(=O)c2c[nH]c3c(-n4nccn4)c(Cl)ccc23)nc1OC [Example 85, 6-chloro-N-[4,6-dimethoxy-5-(1,1,2,2-tetradeuterio-2-fluoro-ethoxy)pyrimidin-2-yl]-7-(triazol-2-yl)-1H-indole-3-sulfonamide]
IC50: 42 nM

[2H]C([2H])(c1c(OC)nc(NS(=O)(=O)c2c[nH]c3c(-n4cccn4)c(Cl)ccc23)nc1OC)C(F)F [Example 86, 6-chloro-N-[5-(1,1-dideuterio-2,2-difluoroethyl)-4,6-dimethoxy-pyrimidin-2-yl]-7-pyrazol-1-yl-1H-indole-3-sulfonamide]
IC50: 44 nM
